Experimental data taken from the supplement of paper PMC6045584.
± gives the standard deviation of the averaged measurements.

Experiments:
FLUOROURACIL = compound: O=c1[nH]cc(F)c(=O)[nH]1 [FLUOROURACIL]; test: surviving fraction relative to DMSO-only wells; higher = less growth inhibition; conditions: exposure time: 5 days
Summary of the method: (§1)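 At 250–500 cells per well in 384-well plates, log-phase tumour cell lines were seeded and, 24 hours on, exposed continuously for five days to inhibitors at 0.5, 1, 5, 10, 50, 100, 500 and 1000 nM. Viability readout was CellTiter-Glo luminescence, reported as surviving fraction normalised to the median of DMSO-only wells.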

SALINOMYCIN = compound: CC[C@@H](C(=O)[C@@H](C)[C@@H](O)[C@H](C)[C@@H]1O[C@@H]([C@@H](CC)C(=O)O)CC[C@@H]1C)[C@H]1O[C@]2(C=C[C@@H](O)[C@]3(CC[C@@](C)([C@H]4CC[C@](O)(CC)[C@H](C)O4)O3)O2)[C@H](C)C[C@@H]1C [SALINOMYCIN]; test: as above; conditions: exposure time: 5 days
Summary of the method: as §1

Test System | surviving fraction (FLUOROURACIL; 0.5 nM) | surviving fraction (FLUOROURACIL; 1 nM) | surviving fraction (FLUOROURACIL; 5 nM) | surviving fraction (FLUOROURACIL; 10 nM) | surviving fraction (FLUOROURACIL; 50 nM) | surviving fraction (FLUOROURACIL; 100 nM) | surviving fraction (FLUOROURACIL; 500 nM) | surviving fraction (FLUOROURACIL; 1000 nM) | surviving fraction (SALINOMYCIN; 0.5 nM) | surviving fraction (SALINOMYCIN; 1 nM) | surviving fraction (SALINOMYCIN; 5 nM) | surviving fraction (SALINOMYCIN; 10 nM) | surviving fraction (SALINOMYCIN; 50 nM) | surviving fraction (SALINOMYCIN; 100 nM) | surviving fraction (SALINOMYCIN; 500 nM) | surviving fraction (SALINOMYCIN; 1000 nM)
SG43 HEADNECK | 1.07 ± 0.14 | 0.991 ± 0.21 | 0.979 ± 0.25 | 1.06 ± 0.3 | 1.1 ± 0.22 | 0.905 ± 0.073 | 0.977 ± 0.088 | 0.879 ± 0.054 | 0.921 ± 0.12 | 1.2 ± 0.14 | 0.776 ± 0.14 | 1.05 ± 0.13 | 0.954 ± 0.14 | 1.16 ± 0.13 | 0.459 ± 0.023 | 0.285 ± 0.11
SIHA CERVIX | 1.01 ± 0.043 | 0.989 ± 0.052 | 1.06 ± 0.011 | 1.08 ± 0.066 | 0.999 ± 0.051 | 0.957 ± 0.073 | 0.915 ± 0.13 | 1.02 ± 0.097 | 0.875 ± 0.013 | 0.878 ± 0.011 | 0.935 ± 0.073 | 0.967 ± 0.047 | 0.9557 ± 0.0072 | 0.928 ± 0.052 | 0.513 ± 0.038 | 0.419 ± 0.014
SJSA1 BONE | 1.19 ± 0.1 | 1.6 ± 0.092 | 1.59 ± 0.11 | 1.52 ± 0.2 | 0.135 ± 0.008 | 0.823 ± 0.018 | 1.44 ± 0.026 | 0.116 ± 0.001 | 1 ± 0.033 | 0.992 ± 0.011 | 1.02 ± 0.041 | 1 ± 0.033 | 1.02 ± 0.023 | 0.966 ± 0.023 | 0.404 ± 0.041 | 0.27 ± 0.043
SKBR3 BREAST | 0.988 ± 0.088 | 0.894 ± 0.085 | 1.03 ± 0.074 | 0.986 ± 0.015 | 0.792 ± 0.059 | 0.741 ± 0.11 | 0.901 ± 0.11 | 0.787 ± 0.018 | 1 ± 0.13 | 1.09 ± 0.2 | 0.927 ± 0.12 | 0.997 ± 0.051 | 1.05 ± 0.12 | 0.98 ± 0.17 | 0.238 ± 0.025 | 0.109 ± 0.015
SNU475 LIVER | 1 ± 0.058 | 0.982 ± 0.018 | 0.99 ± 0.046 | 0.9607 ± 0.0047 | 0.886 ± 0.021 | 0.892 ± 0.025 | 0.826 ± 0.081 | 0.741 ± 0.066 | 0.974 ± 0.027 | 0.86 ± 0.032 | 0.952 ± 0.029 | 0.423 ± 0.0047 | 1.04 ± 0.036 | 0.871 ± 0.033 | 0.46 ± 0.046 | 0.31 ± 0.018
SUM44 BREAST | 1.03 ± 0.23 | 0.958 ± 0.17 | 1.02 ± 0.16 | 0.956 ± 0.12 | 1.05 ± 0.12 | 0.788 ± 0.041 | 0.982 ± 0.05 | 0.726 ± 0.07 | 0.967 ± 0.033 | 0.959 ± 0.021 | 0.995 ± 0.042 | 0.992 ± 0.017 | 1.01 ± 0.033 | 1.02 ± 0.028 | 0.852 ± 0.031 | 0.748 ± 0.037
SUM149 BREAST | 0.934 ± 0.029 | 0.969 ± 0.064 | 0.908 ± 0.028 | 0.909 ± 0.038 | 0.872 ± 0.071 | 0.902 ± 0.063 | 0.736 ± 0.069 | 0.597 ± 0.057 | 0.981 ± 0.06 | 0.972 ± 0.14 | 1.02 ± 0.13 | 0.392 ± 0.03 | 1.06 ± 0.092 | 0.836 ± 0.052 | 0.424 ± 0.042 | 0.356 ± 0.01
SUM149.B1*.S BREAST | 1.1 ± 0.044 | 1.06 ± 0.043 | 1.12 ± 0.028 | 1.04 ± 0.04 | 1.04 ± 0.064 | 0.962 ± 0.034 | 0.909 ± 0.03 | 0.812 ± 0.021 | 1.02 ± 0.052 | 0.884 ± 0.057 | 0.955 ± 0.016 | 0.609 ± 0.014 | 0.982 ± 0.051 | 0.768 ± 0.032 | 0.3677 ± 0.0023 | 0.294 ± 0.016
SUM159 BREAST | 1.1 ± 0.024 | 1.07 ± 0.023 | 1.08 ± 0.027 | 1.06 ± 0.026 | 1.073 ± 0.0051 | 1.01 ± 0.012 | 1.03 ± 0.014 | 0.915 ± 0.01 | 0.979 ± 0.033 | 0.92 ± 0.13 | 0.865 ± 0.25 | 0.934 ± 0.12 | 0.648 ± 0.14 | 0.475 ± 0.18 | 0.32 ± 0.088 | 0.268 ± 0.092
SYO1 SYNOVIAL | 1.02 ± 0.012 | 0.989 ± 0.01 | 0.962 ± 0.029 | 0.974 ± 0.024 | 0.894 ± 0.016 | 0.872 ± 0.034 | 0.763 ± 0.034 | 0.616 ± 0.025 | 0.905 ± 0.038 | 0.832 ± 0.089 | 0.876 ± 0.056 | 0.475 ± 0.14 | 0.949 ± 0.04 | 0.804 ± 0.1 | 0.293 ± 0.02 | 0.117 ± 0.028
T47D BREAST | 1.02 ± 0.03 | 1.03 ± 0.03 | 1 ± 0.0033 | 1.01 ± 0.03 | 1.02 ± 0.041 | 0.95 ± 0.04 | 0.855 ± 0.02 | 0.761 ± 0.028 | 1 ± 0.034 | 1.017 ± 0.0096 | 0.983 ± 0.04 | 0.898 ± 0.047 | 1.07 ± 0.015 | 1.07 ± 0.046 | 0.891 ± 0.041 | 0.631 ± 0.018
U2OS BONE | 1.02 ± 0.021 | 1.04 ± 0.025 | 1.083 ± 0.0072 | 1.05 ± 0.05 | 1.01 ± 0.011 | 0.966 ± 0.083 | 0.843 ± 0.051 | 0.674 ± 0.043 | 1.01 ± 0.022 | 1.02 ± 0.04 | 1.01 ± 0.016 | 1.015 ± 0.0081 | 1.06 ± 0.019 | 1.04 ± 0.029 | 0.783 ± 0.024 | 0.538 ± 0.035
VCAP PROSTATE | 1.03 ± 0.11 | 1.06 ± 0.026 | 1.09 ± 0.044 | 1.22 ± 0.097 | 1.05 ± 0.077 | 0.998 ± 0.22 | 0.916 ± 0.17 | 0.939 ± 0.049 | 1.07 ± 0.18 | 1.04 ± 0.12 | 1.09 ± 0.074 | 1.14 ± 0.053 | 1.08 ± 0.13 | 1.04 ± 0.023 | 0.245 ± 0.044 | 0.144 ± 0.0072
VP229 BREAST | 1.08 ± 0.036 | 0.988 ± 0.05 | 1.1 ± 0.13 | 0.92 ± 0.16 | 0.905 ± 0.068 | 0.827 ± 0.062 | 0.773 ± 0.095 | 0.654 ± 0.18 | 0.949 ± 0.074 | 0.907 ± 0.022 | 1.04 ± 0.15 | 0.891 ± 0.12 | 0.831 ± 0.14 | 0.52 ± 0.021 | 0.139 ± 0.017 | 0.133 ± 0.015
YAMATO SYNOVIAL | 1.2 ± 0.08 | 1.15 ± 0.056 | 1.3 ± 0.021 |  | 0.921 ± 0.061 | 0.829 ± 0.046 | 0.791 ± 0.053 | 0.654 ± 0.028 | 1.11 ± 0.044 | 0.733 ± 0.042 | 0.984 ± 0.046 | 0.216 ± 0.0092 | 1.05 ± 0.08 | 0.655 ± 0.029 | 0.359 ± 0.013 | 0.133 ± 0.013
ZR751 BREAST | 1.21 ± 0.13 | 1.26 ± 0.11 | 0.966 ± 0.051 | 1.12 ± 0.18 | 1.04 ± 0.12 | 1.1 ± 0.16 | 0.974 ± 0.072 | 0.81 ± 0.083 | 1.05 ± 0.086 | 1.01 ± 0.11 | 0.992 ± 0.14 | 1.03 ± 0.092 | 1.17 ± 0.15 | 0.787 ± 0.089 | 0.408 ± 0.055 | 0.289 ± 0.024
